# Activity calls are given as the source filed them. The rule behind the calls is not given here.
# Tests used:
# MDA-MB-231 [1] = assay: Antiproliferative activity against human MDA-MB-231 cells incubated for 72 hrs by MTT assay; format: functional, cell-based; details: MDA-MB-231, 72 h
# BT-549 [2] = assay: Antiproliferative activity against human BT-549 cells incubated for 72 hrs by MTT assay; format: functional, cell-based; details: BT-549, 72 h
# HCT-116 [3] = assay: Antiproliferative activity against human HCT-116 cells incubated for 72 hrs by MTT assay; format: functional, cell-based; details: HCT-116, 72 h
# A549 [4] = assay: Antiproliferative activity against human A549 cells incubated for 72 hrs by MTT assay; format: functional, cell-based; details: A549, 72 h
# A549 [5] = assay: Synergistic antiproliferative activity against human A549 cells at JQ1 and compound 1:1 ratio incubated for 72 hrs by MTT assay; format: functional, cell-based; details: A549, 72 h
# HCT-116 [6] = assay: Synergistic antiproliferative activity against human HCT-116 cells at JQ1 and compound 1:1 ratio incubated for 72 hrs by MTT assay; format: functional, cell-based; details: HCT-116, 72 h
# BT-549 [7] = assay: Synergistic antiproliferative activity against human BT-549 cells at JQ1 and compound 1:1 ratio incubated for 72 hrs by MTT assay; format: functional, cell-based; details: BT-549, 72 h
# MDA-MB-231 [8] = assay: Synergistic antiproliferative activity against human MDA-MB-231 cells at JQ1 and compound 1:1 ratio incubated for 72 hrs by MTT assay; format: functional, cell-based; details: MDA-MB-231, 72 h
# [9] = target: Bromodomain-containing protein 4 (Homo sapiens, UniProt O60885); assay: Inhibition of BRD4 BD1 (unknown origin) incubated for 15 mins by TR-FRET method
# [10] = Binding affinity to recombinant PRC2 complex (unknown origin) incubated for 3 hrs in presence of SAM; design: species or system Homo sapiens
# [11] = target: T1, Histone-lysine N-methyltransferase EZH2 (Homo sapiens, UniProt Q15910); assay: Inhibition of EZH2 in human A549 cells assessed as decrease in H3K27ac level at 2 to 8 uM incubated for 48 hrs by Western blotting analysis; format: cell-based; details: dose 2-8 µM
# [12] = target: T1, Histone-lysine N-methyltransferase EZH2; assay: Inhibition of EZH2 in human HCT-116 cells assessed as decrease in H3K27ac level at 2 to 8 uM incubated for 48 hrs by Western blotting analysis; format: cell-based; details: dose 2-8 µM
# [13] = target: T1, Histone-lysine N-methyltransferase EZH2; assay: Inhibition of EZH2 in human MDA-MB-231 cells assessed as decrease in H3K27ac level at 2 to 8 uM incubated for 48 hrs by Western blotting analysis; format: cell-based; details: dose 2-8 µM
# T1 sequence (Q15910 whole entry, looked up): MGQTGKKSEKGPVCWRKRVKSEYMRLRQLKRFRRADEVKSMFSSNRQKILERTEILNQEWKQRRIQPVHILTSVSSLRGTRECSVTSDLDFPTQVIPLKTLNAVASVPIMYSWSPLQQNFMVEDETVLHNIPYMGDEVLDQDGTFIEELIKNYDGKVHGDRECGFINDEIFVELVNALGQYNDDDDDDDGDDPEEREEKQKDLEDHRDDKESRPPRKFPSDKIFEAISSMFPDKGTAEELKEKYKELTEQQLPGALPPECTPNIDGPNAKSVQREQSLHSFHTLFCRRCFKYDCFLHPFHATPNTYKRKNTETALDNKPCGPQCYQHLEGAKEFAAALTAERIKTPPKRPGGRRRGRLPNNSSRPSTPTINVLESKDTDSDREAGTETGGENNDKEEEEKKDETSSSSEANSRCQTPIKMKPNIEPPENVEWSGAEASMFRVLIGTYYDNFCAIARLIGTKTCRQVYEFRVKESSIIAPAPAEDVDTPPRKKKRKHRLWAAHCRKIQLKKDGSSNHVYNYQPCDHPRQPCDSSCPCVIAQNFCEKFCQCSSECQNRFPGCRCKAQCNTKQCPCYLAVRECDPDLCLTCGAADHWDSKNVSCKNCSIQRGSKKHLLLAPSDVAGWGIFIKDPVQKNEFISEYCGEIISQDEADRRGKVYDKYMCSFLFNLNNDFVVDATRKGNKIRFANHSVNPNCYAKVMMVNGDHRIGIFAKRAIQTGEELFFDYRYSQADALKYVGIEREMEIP
Structure (SMILES),IC50 (MDA-MB-231 [1]),IC50 (BT-549 [2]),IC50 (HCT-116 [3]),IC50 (A549 [4]),IC50 (A549 [5]),IC50 (HCT-116 [6]),IC50 (BT-549 [7]),IC50 (MDA-MB-231 [8]),IC50 [9],Kd [10],inhibition [11],inhibition [12],inhibition [13]
Cc1cc(C)c(CNC(=O)c2cc(-c3ccc(N4CCN(C(=O)C[C@@H]5N=C(c6ccc(Cl)cc6)c6c(sc(C)c6C)-n6c(C)nnc65)CC4)cc3)cc3c2cnn3C(C)C)c(=O)[nH]1,> 20 µM,> 20 µM,17.8 µM,> 20 µM,,,,,,,,,
Cc1cc(C)c(CNC(=O)c2cc(-c3ccc(N4CCN(C(C)C)CC4)nc3)cc3c2cnn3C(C)C)c(=O)[nH]1,11.7 µM,15.1 µM,16.9 µM,16.1 µM,7.48 µM,0.92 µM,4.73 µM,1.1 µM,,,,,
Cc1cc(C)c(CNC(=O)c2cc(-c3ccc(NC(=O)C[C@@H]4N=C(c5ccc(Cl)cc5)c5c(sc(C)c5C)-n5c(C)nnc54)cc3)cc3c2cnn3C(C)C)c(=O)[nH]1,> 20 µM,> 20 µM,> 20 µM,> 20 µM,,,,,> 20 µM,,,,
Cc1cc(C)c(CNC(=O)c2cc(N3CCN(C(=O)C[C@@H]4N=C(c5ccc(Cl)cc5)c5c(sc(C)c5C)-n5c(C)nnc54)CC3)cc3c2cnn3C(C)C)c(=O)[nH]1,10.9 µM,3.87 µM,> 20 µM,> 20 µM,,,,,,,,,
Cc1cc(C)c(CNC(=O)c2cc(NCCCCNC(=O)C[C@@H]3N=C(c4ccc(Cl)cc4)c4c(sc(C)c4C)-n4c(C)nnc43)cc3c2cnn3C(C)C)c(=O)[nH]1,13.5 µM,9.57 µM,10.2 µM,> 20 µM,,,,,0.216 µM,,,,
CCC(C)n1ncc2c(C(=O)NCc3c(C)cc(C)[nH]c3=O)cc(-c3ccc(N4CCN(C(=O)C[C@@H]5N=C(c6ccc(Cl)cc6)c6c(sc(C)c6C)-n6c(C)nnc65)CC4)nc3)cc21 (some centres undefined),> 20 µM,> 20 µM,> 20 µM,> 20 µM,,,,,,,,,
Cc1cc(C)c(CNC(=O)c2cc(-c3ccc(NC(=O)CCCNC(=O)C[C@@H]4N=C(c5ccc(Cl)cc5)c5c(sc(C)c5C)-n5c(C)nnc54)cc3)cc3c2cnn3C(C)C)c(=O)[nH]1,7.54 µM,> 20 µM,> 20 µM,> 20 µM,,,,,0.137 µM,0.376 µM,,,
Cc1cc(C)c(CNC(=O)c2cc(-c3ccc(NC(=O)CCNC(=O)C[C@@H]4N=C(c5ccc(Cl)cc5)c5c(sc(C)c5C)-n5c(C)nnc54)cc3)cc3c2cnn3C(C)C)c(=O)[nH]1,6.16 µM,> 20 µM,> 20 µM,> 20 µM,,,,,0.124 µM,0.464 µM,,,
Cc1cc(C)c(CNC(=O)c2cc(NCCCNC(=O)C[C@@H]3N=C(c4ccc(Cl)cc4)c4c(sc(C)c4C)-n4c(C)nnc43)cc3c2cnn3C(C)C)c(=O)[nH]1,15.4 µM,11.5 µM,> 20 µM,> 20 µM,,,,,0.206 µM,,,,
Cc1cc(C)c(CNC(=O)c2cc(N3CCC(CNC(=O)C[C@@H]4N=C(c5ccc(Cl)cc5)c5c(sc(C)c5C)-n5c(C)nnc54)CC3)cc3c2cnn3C(C)C)c(=O)[nH]1,2.07 µM,3.2 µM,5.61 µM,8.93 µM,,,,,0.353 µM,0.133 µM,,,
Cc1cc(C)c(CNC(=O)c2cc(N3CCC4(CCN(C(=O)C[C@@H]5N=C(c6ccc(Cl)cc6)c6c(sc(C)c6C)-n6c(C)nnc65)C4)CC3)cc3c2cnn3C(C)C)c(=O)[nH]1,2.87 µM,3.64 µM,2.23 µM,17.3 µM,,,,,,,,,
Cc1cc(C)c(CNC(=O)c2cc(-c3ccc(N4CCN(C(=O)C[C@@H]5N=C(c6ccc(Cl)cc6)c6c(sc(C)c6C)-n6c(C)nnc65)CC4)nc3)cc3c2cnn3C)c(=O)[nH]1,11.8 µM,5.13 µM,> 20 µM,> 20 µM,,,,,,,,,
CCn1ncc2c(C(=O)NCc3c(C)cc(C)[nH]c3=O)cc(-c3ccc(N4CCN(C(=O)C[C@@H]5N=C(c6ccc(Cl)cc6)c6c(sc(C)c6C)-n6c(C)nnc65)CC4)nc3)cc21,> 20 µM,3.51 µM,6.68 µM,> 20 µM,,,,,,,,,
Cc1cc(C)c(CNC(=O)c2cc(-c3ccc(NC(=O)CCCCNC(=O)C[C@@H]4N=C(c5ccc(Cl)cc5)c5c(sc(C)c5C)-n5c(C)nnc54)cc3)cc3c2cnn3C(C)C)c(=O)[nH]1,2.21 µM,10.4 µM,6.27 µM,> 20 µM,,,,,0.055 µM,0.682 µM,,,
Cc1sc2c(c1C)C(c1ccc(Cl)cc1)=N[C@@H](CC(=O)OC(C)(C)C)c1nnc(C)n1-2,6.17 µM,3.89 µM,3.07 µM,18.3 µM,,,,,,,,,
CCCc1cc(C)[nH]c(=O)c1CNC(=O)c1cc(-c2ccc(N3CCN(C(=O)C[C@@H]4N=C(c5ccc(Cl)cc5)c5c(sc(C)c5C)-n5c(C)nnc54)CC3)nc2)cc2c1cnn2C(C)C,> 20 µM,> 20 µM,> 20 µM,> 20 µM,,,,,,,,,
CC[C@@H](C)n1cc(C)c2c(C(=O)NCc3c(C)cc(C)[nH]c3=O)cc(-c3ccc(N4CCNCC4)nc3)cc21,11.7 µM,9.23 µM,12.9 µM,18.6 µM,4.34 µM,1.76 µM,2.05 µM,2.6 µM,,0.0891 µM,inactive,inactive,inactive
Cc1cc(C)c(CNC(=O)c2cc(-c3ccc(CNC(=O)C[C@@H]4N=C(c5ccc(Cl)cc5)c5c(sc(C)c5C)-n5c(C)nnc54)cc3)cc3c2cnn3C(C)C)c(=O)[nH]1,3.14 µM,12.2 µM,11.5 µM,> 20 µM,,,,,0.259 µM,,,,
Cc1cc(C)c(CNC(=O)c2cc(-c3ccc(N4CCN(C(=O)C[C@@H]5N=C(c6ccc(Cl)cc6)c6c(sc(C)c6C)-n6c(C)nnc65)CC4)nc3)cc3c2cnn3C(C)C)c(=O)[nH]1,> 20 µM,3.4 µM,2.3 µM,> 20 µM,,,,,,,,,
Cc1cc(C)c(CNC(=O)c2cc(NCCCCCCNC(=O)C[C@@H]3N=C(c4ccc(Cl)cc4)c4c(sc(C)c4C)-n4c(C)nnc43)cc3c2cnn3C(C)C)c(=O)[nH]1,3.23 µM,4.99 µM,1.9 µM,9.2 µM,,,,,0.138 µM,0.19 µM,,,
Cc1cc(C)c(CNC(=O)c2cc(-c3ccc(NC(=O)CNC(=O)C[C@@H]4N=C(c5ccc(Cl)cc5)c5c(sc(C)c5C)-n5c(C)nnc54)cc3)cc3c2cnn3C(C)C)c(=O)[nH]1,1.24 µM,10.8 µM,2.9 µM,> 20 µM,,,,,0.138 µM,,,,
Cc1cc(C)c(CNC(=O)c2cc(NCC3CCN(C(=O)C[C@@H]4N=C(c5ccc(Cl)cc5)c5c(sc(C)c5C)-n5c(C)nnc54)CC3)cc3c2cnn3C(C)C)c(=O)[nH]1,3.11 µM,2.12 µM,2.18 µM,4.58 µM,,,,,,,,,
Cc1cc(C)c(CNC(=O)c2cc(NC3CCN(C(=O)C[C@@H]4N=C(c5ccc(Cl)cc5)c5c(sc(C)c5C)-n5c(C)nnc54)CC3)cc3c2cnn3C(C)C)c(=O)[nH]1,8.09 µM,3.91 µM,4.28 µM,> 20 µM,,,,,,,,,
